The text below walks through data of patent US20090325992A1, “COMPOUND HAVING CYCLIC GROUP BOUND THERETO THROUGH SPIRO BINDING AND USE THEREOF” (ONO PHARMACEUTICAL CO., LTD., priority 2006, published 2009).

The conditions of series [1]: rat, in vivo, iv, 1 mg/kg.
Procedure: (§1) Measurement of Maximum Plasma Level (Cmax) and Stationary State Distribution Volume (Vss)
(§2) A compound to be evaluated is weighed, dissolved in WellSolve (trade name; manufactured by Celeste Corporation) which is heated to 60° C. and adjusted to 20 mg/mL; thereafter, the test compound is diluted by 10 times with distilled water for injection, and further diluted by 2 times with saline solution, by which intravenously administered solution is eventually made. A compound to be evaluated is dissolved in WellSolve which is heated to 60° C. and adjusted to 50 mg/mL; thereafter, the compound to be evaluated is diluted with distilled water for injection and adjusted to 1 mg/mL. Five compounds (one set) were mixed in the same amount and adjusted to final concentration of 0.2 mg/mL per one compound, by which orally administered solution is eventually made. […] The administration is conducted under fasting conditions; water is freely ingested. In the case of intravenous administration, a 0.35 mL of blood sample is taken from cervical vein by using Heparinized Syringe at 5 minutes, 15 minutes, 30 minutes, 1 hour, 2 hours, 4 hours, 6 hours, 8 hours, and 24 hours after administration. […] The obtained blood is stored in ice, and after centrifugation at 12,000 rpm for 3 minutes, blood plasma is fractionated. In the case of intravenous administration, the blood plasma sample preserved at a temperature of −80° C. is dissolved; inner standard solution (100 μL) and acetonitrile (2 mL) are added to the blood plasma sample (100 μL) and stirred, and the sample is centrifuged at 2,500 rpm for 10 minutes.
(§3) After the supernatant centrifuged is evaporated to dryness by means of a centrifugal concentrator, 67% dimethyl sulfoxide solution (150 μL) is added to the residue and dissolves them again and 20 μL of the solution is analyzed by means of LC/MS/MS.
(§4) Measurement device: Waters 2795 (manufactured by Waters Corporation) Analytical column: Unison UK-C18, 3.0 μm particle size, 2.0 mm×30 mm (manufactured by Imtakt Corporation) Analytical column temperature: Room temperature Flow rate: 200 μL/min Moving bed: 5 mM IPC-PFAA-7 solution/acetonitrile (9/1→1/9)
(§5) Measurement device: Quatro micro API (manufactured by Micromass Communications Inc.) Scan type: MPM
(§6) The monitor ion which was suitable for each sample was selected.
(§7) A portion of the compound to be intravenously administered was subjected to the following treatment. The blood plasma sample preserved at a temperature of −80° C. is dissolved; inner standard solution (50 μL) and acetonitrile (1 mL) are added to the blood plasma sample (50 μL) and stirred, and the sample is centrifuged at 3,000 rpm for 10 minutes. After the supernatant is evaporated to dryness by means of a centrifugal concentrator, the residue was redissolved in water/acetonitrile (1/1) and the solution is analyzed by means of LC/MS/MS under the following conditions.
(§8) Measurement device: 1200 series system (manufactured by Agilent Technologies) Analytical column: Asahipak OOD-50 2D, 2×150 mm (manufactured by Showa Denko K.K.) Analytical column temperature: Room temperature Moving bed: 5 mM IPC—PFAA-7 solution/acetonitrile (gradient) Flow rate: 200 μL/min
Series [2] deals with CHL/IU (cell line derived from a Chinese hamster lung). Put plainly: Phospholipidosis detecting system using fluorescent labeling phospholipid analog (NBD-PE). The series is classed as cell-based. Particulars: for Rate of increase of phospholipid accumulation (%) (compound dose: 200 μM): CHL/IU cells, compound dose 200 μM, about 48 hours, relative to NBD-PE control. The method, then:
Investigation with Phospholipidosis Detecting System using Fluorescent Labeling Phospholipidosis Analog under Severity Condition (1) Phospholipid Accumulation Measurement 100 μL/well as required (1 dose 2 wells) of cell suspension of CHL/IU (cell line derived from a Chinese hamster lung) (7×10^4 cells/mL) prepared by MEM (minimum essential medium) culture medium was added to a 96-well plate (96-well clear-bottom plate), and cultured for about 24 hours. After culture, the supernatant of the 96-well plate was removed, and the 100 μL/well compounds of each concentration dissolved and suspended in an MEM including 25 μmol/L nitrobenzoxadiazole dipalmitoyl phosphatidylethanolamine (NBD-PE) (hereinafter abbreviated as a NPD-PE medium) were added and treated for about 48 hours. The treatment concentrations of each compound were set to be 5, 50, 100 and 200 μM. The positive control substance was set to be amiodarone hydrochloride, and the treatment concentrations were set to be 1.25, 2.5, 5, 10 and 20 μM. In addition, 5-well untreated controls (only MEM) and 5-well NBD-PE controls (made by means of adding a 1/100 amount of DMSO to the NBD-PE culture medium) were set per compound, and cultured in the same manner. After finishing the culture, the cultures were washed twice with phosphate buffered saline (hereinafter abbreviated as PBS) (−) 100 μL/well, and the MEM (100 μL) was added to all of the treatment wells including two empty wells for WST-1 background controls and cultured for about a half hour. The fluorescence intensities of each well were measured by using a microplate reader (manufactured by Molecular Devices Inc., SPECTRA max M2; the excitation wavelength 485 nm/fluorescence wavelength 535 nm). (2) Analysis Using the average values of each dose×2 wells, a phospholipid increase rate (%) to the NBD-PE control was calculated by using the following calculating formula: Rate of increase of phospholipid accumulation (%)=100×{(test compound fluorescence intensity−non-treated control fluorescence intensity)/(NBD-PE control fluorescence intensity−non-treated control fluorescence intensity)} [Equation 2] (3) Cytotoxicity Assay 96-well plate measured in the phospholipid accumulation measurement was measured by means of Plate Reader (manufactured by Molecular Devices Inc., SPECTRA max M2) with the main wavelength of 450 nm and the correct wavelength of 690 nm to calculate a Pre value. An amount of 5 μL/well of Premix WS T-1 was added to each of the 96-hole plates by which Pre measurement was conducted. After culture for 2 to 4 hours, the 96-well plate was measured as well as the Pre measurement to calculate an Aft value. Then, the background control value was subtracted from the each measured value. A value which was calculated by subtracting the Pre value from the Aft value was used, then the cell growth rate (%) was calculated by using the following calculating formula: Cell growth rate (%)=100×[(test substance OD)/(NBD-PE control OD)] [Equation 3] (4) Determination A test dose that indicated value of 25% or more of the maximum phospholipid accumulation increase rate of amiodarone which was the positive control was determined as positive. In addition, the dose whose cell growth rate was equal to or less than 50% in the cytotoxicity assay was not used for determination of existence or nonexistence of a phospholipidosis inductive effect.

A short description of series [3]: Artificial lipid membrane binding using Biacore S51 system. As to conditions: for Value of binding response (RU): DOPA liposome, 50 μM compound, PBS/5% DMSO pH 7.4, 37° C., corrected value; for Determination (artificial lipid membrane binding): positive = corrected binding response 150 or more.
Procedure: Artificial Lipid Membrane Binding Account by using Biacore® S51 System
10 mM of 1,2-dioleoyl-sn-glycero-3-phosphate monosodium salt (hereinafter abbreviated as DOPA) chloroform solution was evaporated to dryness by means of an aspirator, and 0.6 mL of PBS/5% dimethyl sulfoxide (hereinafter abbreviated as DMSO) was added. The chloroform solution was fully suspended by means of a vortex mixer, and the freezing and thawing were repeated for 5 times. Liposome was created by means of a liposome preparation instrument (manufactured by Avestin Inc.) and two syringes, and was diluted to 0.5 mM with PBS/5% DMSO just prior to immobilization.
(2) Measurement Compound Preparation
38 μl of 1×PBS is added to 2 μl of a DMSO solution (10 mM), and further the 360 μl of 1×PBS/5% DMSO was added and the 50 μM of final concentration in PBS/5% DMSO was prepared and measured.
All of the following analysis used Biacore® S51 system and the measurement conditions were set by Biacore S51 Control Soft.
The measurement temperature was set to be 37° C., and PBS/5% DMSO (pH 7.4 or 6.0) was used as a buffer. Series S Sensor Chip L1 was used for a sensor chip. DOPA was immobilized in one of the measuring spots on the sensor surface and the central spot was used as a reference.
Immobilization of liposome was conducted at a flow rate of 10 μL/min for about 3 minutes and then the compound was added at a flow rate of 30 μL/min and the interaction was measured. The measurement conditions are as follows:
Assay buffer: PBS/5% DMSO (pH 7.4) Measurement temperature: 37° C. Sensor chip: Series S Sensor Chip L1 Flow rate: 10 μL/min at the time of the liposome immobilization; 30 μL/min at the time of the measurement of interaction with the compound Regeneration: 20 mM CHAPS (3-[(3-cholamidopropyl)dimethylammonio]-1-propanesulfonate), isopropylalcohol/aqueous 50 mM sodium hydroxide solution=40/60 (volume ratio) mixture solution (60 seconds)
The data processing was conducted by means of method of Abdiche et al., (Analytical biochemistry, 328, 233-243 (2004)) by using Biacore S51 Evaluation Soft.
Regarding the value of binding response (RU) in which the value of reference was subtracted, it was divided by a sample molecular weight after minute error of the DMSO concentration included in the sample solution was corrected. In addition, the value obtained here was divided by an amount of capture at the time of the cycle because the value obtained here was proportional to the amount of capture of the liposome and the value was multiplied by a million to be considered as a corrected value (Corrected value=1,000,000×RU (test compound)/molecular quantity (test compound) RU (liposome)).
The compound wherein a value of the binding response after the correction was 150 or more was determined as positive.
Series [4] can be described thus: Measurement of maximum plasma level (Cmax) and stationary state distribution volume (Vss). As to conditions: male, Crl:CD(SD), rat, iv, 1 mg/kg.
Procedure: as §1, §2, §3, §4, §5, §6, §7, §8
The target of series [5] is T1, CXCR4 (human T cell strain CEM cells) (Homo sapiens, UniProt P61073).
T1 construct: a human T cell strain in which CXCR4 is known to be expressed; endogenous in cells; host or cells: CEM cells (human T cell strain)
Kind of series: Inhibition of binding human SDF-1 to CEM cells (125I-SDF-1). As to conditions: 4° C., 60 minutes. The procedure:
Specifically, as a system of screening a compound that inhibits the binding between SDF-1 and CXCR4, for example a system of measuring the binding between iodine-labeled SDF-1 and a human T cell strain in which CXCR4 is known to be expressed is operable.
Study for Inhibition of Binding Human SDF-1 to CEM Cells
To human T cell strain CEM cells in a binding buffer (containing HEPES and BSA), the test compound and ^125I-SDF-1 (PerkinElmer) were added and the mixture was incubated at 4° C. for 60 minutes. The reacted CEM cells were rapidly filtrated with a GF/B membrane filter plate (Packard) to adsorb. The plate was washed with phosphate buffered saline (hereinafter abbreviated to PBS) three times and then dried. Microscint+20 (Packard) was added thereto. An amount of the radioactivity bound to the CEM cells was measured using Top Count (Packard) and inhibition (%) of the test compound was calculated according to the following equation:
Inhibition={(Et−Ea)/(Et−Ec)}×100 [Equation 1]
Et: Amount of radioactivity when the test compound is not added,
Ec: Amount of radioactivity when non-radioactive SDF-1 (Pepro Tech) is added in an amount of 1,000 times as much as ^125I-SDF-1 as a test compound, and
Ea: Amount of radioactivity when the test compound is added.

[6] abbreviates: positive = 25% or more of the maximum increase rate of amiodarone.

Read-outs that look alike come from different tables or passages of the source.

T1 sequence (P61073 whole entry): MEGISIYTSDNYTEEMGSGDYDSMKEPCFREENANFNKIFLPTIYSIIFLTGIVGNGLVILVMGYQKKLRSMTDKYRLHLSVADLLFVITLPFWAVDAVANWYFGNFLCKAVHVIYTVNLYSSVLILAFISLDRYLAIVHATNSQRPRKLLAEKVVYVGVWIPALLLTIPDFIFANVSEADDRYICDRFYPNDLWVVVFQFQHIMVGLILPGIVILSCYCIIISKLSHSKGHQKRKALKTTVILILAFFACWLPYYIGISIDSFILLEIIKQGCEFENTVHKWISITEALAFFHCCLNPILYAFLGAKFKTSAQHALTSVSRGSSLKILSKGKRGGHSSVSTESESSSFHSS

For the compound `CC(C)CN1CCC2(CC1)CCN(CCCn1ccnc1CN(CCCC(=O)O)Cc1ncc[nH]1)C2` [Example 22(3), 4-[(1H-imidazol-2-ylmethyl)({1-[3-(8-isobutyl-2,8-diazaspiro[4.5]deca-2-yl)propyl]-1H-imidazol-2-yl}methyl)amino]butanoic acid], the “Distribution volume (L/kg) (stationary state distribution volume, Vss)” value in series [1] was determined as 0.90 L/kg. Besides, the “Determination (phospholipidosis, NBD-PE system)” value in series [2] is “Negative”.
The term Vd denotes a proportionality between amount in the body and measured concentration, not a real space. By IC50 is commonly meant the concentration that inhibits the measured activity by half. Consider `CCC(CC)N1CCC2(CCN(CCCn3ccnc3CN(Cc3cccc(OCC(=O)O)c3)Cc3ncc[nH]3)C2)CC1` [Example 43(1), [3-({[(1-{3-[8-(1-ethylpropyl)-2,8-diazaspiro[4.5]deca-2-yl]propyl}-1H-imidazol-2-yl)methyl](1H-imidazol-2-ylmethyl)amino}methyl)phenoxy]acetic acid], for which, in series [3], the “Value of binding response (RU)” value is on record as 41.2 RU and the “Determination (artificial lipid membrane binding)” value is “Negative”. This compound also returned a Vd in series [4] of 0.42 L/kg. In series [5], the IC50 is 6.3 nM. Also, the “Rate of increase of phospholipid accumulation (%) (compound dose: 200 μM)” value in series [2] turned out to be 14%. Moreover, the “Determination (phospholipidosis, NBD-PE system)” value in series [2] (setting [6]) was “Negative”.
With `CCC(CC)N1CCC2(CCN(CCCn3ccnc3CN(CCCC(=O)O)Cc3ncc[nH]3)C2)CC1` [Example 25(1), 4-{[(1-{3-[8-(1-ethylpropyl)-2,8-diazaspiro[4.5]deca-2-yl]propyl}-1H-imidazol-2-yl)methyl](1H-imidazol-2-ylmethyl)amino}butanoic acid], in series [3], the “Value of binding response (RU)” value is 28.3 RU and the “Determination (artificial lipid membrane binding)” value is “Negative”. Moreover, the Vd in series [4] is 0.36 L/kg. In addition, the IC50 in series [5] was found to be 6.6 nM. Moreover, in series [2], the “Rate of increase of phospholipid accumulation (%) (compound dose: 200 μM)” value is 16%. Moreover, in series [2] (setting [6]), the “Determination (phospholipidosis, NBD-PE system)” value is “Negative”.
